Test results as given in patent US20250319053A1, “INHIBITORS OF THE PEPTIDYL-PROLYL CIS/TRANS ISOMERASE (PIN1), COMBINATIONS AND USES THEREOF” (DANA-FARBER CANCER INSTITUTE, INC., priority 2021, published 2025).

Tests used:
PDAC tumors in GDA mice = assay: KPC mouse-derived orthotopic allograft (GDA) mouse model; type: in vivo
Method: 2) the KPC Genetically engineered mouse-derived orthotopic allografts (GDA) mouse model (Hingorani et al., Cancer Cell 7, 469-483 (2005); Li et al., Comput Struct Biotechnol J 17, 498-506 (2019)). Mouse PDAC cells were established from KPC mouse pancreatic tumor tissues, followed by orthotopically injecting 1×10^6 mouse PDAC cells in 50 μL Matrigel (356231, Coaning) into the pancreas of female 8 week-old syngeneic immunocompetent C57BL/6 mice (Jackson Laboratories). 3) PDAC Patient-derived Tumor orthotopic xenografted (PDTX) mouse model (Gilles et al., Clin Cancer Res 24, 1734-1747 (2018); Rubio-Viqueira et al., Clin Cancer Res 12, 4652-4661 (2006)). PDAC PDX tumors were obtained from Dr. Muthuswamy and Dr. Hidalgo and divided into 4×2 mm pieces, followed by xenografting orthotopically into the pancreas of female 8-week-old immunodeficient NOD.Cg-Prkdc^scid Il12rg^tm1Wjl/SzJ (NOD scid gamma; NSG) mice (Jackson Laboratories). 4) PDAC Patient-derived Organoid and CAFs orthotopic xenograft (PDOX) mouse model (Dantes et al., JCI Insight 5, 137809 (2020); (Koikawa et al., Cancer letters 425, 65-77 (2018)). 5×10^4 patient derived PDAC organoids and 5×10^4 patient derived CAFs in 50 μL of Matrigel were injected orthotopically into the pancreas of female 8 week-old immunodeficient NSG mice (Jackson Laboratories).
Briefly, all mice were randomly selected to receive treatments groups. Tumor sizes were measured by weekly palpation with electronic caliper or ultrasound, and when tumors were reached >0.5 cm, the treatment was started. Briefly, animals were placed under general anesthesia with 2%-3% isoflurane once a week. Under general anesthesia, the abdominal wall became very flaccid, and the muscle tone of the mouse was very low. The mouse was scuffed with the left hand to allow for palpation and measurement with the right hand. This allowed to detect the firm pancreatic mass by palpation, and to determine its size by electronic caliper measurements. […] In the transgenic KPC mice, where spontaneous tumor development was expected, weekly palpation was started from age 8 weeks. When the tumor by palpation after age 12 weeks could not be detected, the mice were monitored by ultrasound. Once the maximum length >0.5 cm tumor was detected, the mice were randomized to treatment, and then followed tumor growth by electronic caliper measurement. To validate the external caliper measurements, the tumor size was measured prior to euthanization of the mice and then measured the actual tumor size upon necropsy to ascertain concordance. […] To evaluate the effects of CD8+ T cell or NK1.1′ cell depletion in GDA mice, mice were treated with anti-CD8 (200 μg, i.p., twice a week, BE0117, BioXcell) (Pantelidou et al., Cancer Discov. 9, 722-37 (2019)) or anti-NK1.1 (25 μg, i.p., twice a week, BE0036, BioXcell) (Waggoner et al., Nature 481, 394-398 (2011)), or vehicle (IgG isotype control), and/or Sulfopin (40 mg/kg, i.p., every day) (Pin1i−2) or vehicle (Sulfopin diluted solution; 5% NMP, 5% Solutol, 20% DMSO), and/or anti-PD1 (200 μg, i.p., every 3-4 days, BE0146, BioXcell) or vehicle (IgG isotype control). To test Sulfopin and/or PTX and/or anti-CTLA4 combination treatment in GDA mice, mice were treated with Sulfopin (40 mg/kg, i.p., every day) (Pin1i−2) or vehicle (Sulfopin diluted solution; 5% NMP, 5% Solutol, 20% DMSO), and/or PTX (10 mg/kg i.p., weekly) or vehicle (PTX diluted solution; 10% DMSO, 40% PEG300, 5% Tween 80, 45% Saline), and/or anti-CTLA-4 (250 μg, i.p., every 3-4 days, BE0032, BioXcell) or vehicle (IgG isotype control).

human PDAC organoids = assay: Organoid apoptosis assay (caspase 3/7) with GEM or 5-FU; type: cell-based
Method: The organoids were isolated from Matrigel using collagenase, and seed Matrigel coated 96 well plate, and then treated with control (PBS) or GEM, or control (DMSO) or 5-FU, followed by assaying organoid apoptosis using fluorescent caspase 3/7 and live-cell time lapse imaging for 24 hr. At the start of coculture, a green-fluorescent caspase 3/7 probe reagent (R37111, Invitrogen) and Hoechst (135102, Invitrogen) was added to visualize cells undergoing apoptosis. Apoptotic organoids were monitored by time lapse imaging using BZ-X800 fluorescence microscope (KEYENCE) and quantified using BZ-X800 analyzer (ver. 1.1.1.8, KEYENCE). […] Synergy scores were calculated by Synergyfinder ver 2 (synergyfinder.fimm.fi/) (Ianevski et al., Nucleic Acids Res. 48 IW1), […]-[…] (2020)).

[1] = Body weight of Pin1i-2 treated non-tumor-bearing B6 mice; type: in vivo, mouse; settings: Day 0 = 100
Method: Table 1 is a table of blood test results together with body weight of Pin1i−2 treated non-tumor-bearing B6 mice. See also FIG. 1A-FIG. 1G, FIG. 8A-FIG. 8O, and FIG. 9A-9L. WT B6 mice (non-tumor-bearing mice) were treated with vehicle or Pin1i−2 (20, 40, or 60 mg/kg, i.p., daily) for 5 weeks, followed by examining mice body weight or the RBC, Hb, Plate, and kidney and liver function using blood tests at 3 weeks and 5 weeks (n=5).

[2] = system: human PDAC cells (PDAC1 and PDAC2); assay: Cell proliferation assay (CellTiter-Glo) in PDAC cells; type: cell-based; settings: 72 hrs
Method: Cells were seeded at a density of 5000 cells (PDAC1 and PDAC2), or 3000 cells (CAF1 and CAF2) per well in 96-well flat-bottomed plates and incubated for 24 h in culture medium. […] Control cells received dimethyl sulfoxide (DMSO) at a concentration equal to that of drug-treated cells for 72 hours. The cell viability was determined by CellTiter-Glo® 2.0 Assay (Promega) following the manufacturer's instructions.

[3] = GDA mice, FIG. 9A, GEM 20 mg/kg, n=6, vehicle 34 days

Nc1ccn([C@@H]2O[C@H](CO)[C@@H](O)C2(F)F)c(=O)n1 [GEM, gemcitabine, reference compound]
Median survival (PDAC tumors in GDA mice; [3]): 42 days
organoid apoptosis, agent alone (human PDAC organoids; GEM at 25 nM for 24 hrs): neither Pin1i nor GEM alone had obvious effect

CC(C)(C)CN(C(=O)CCl)C1CCS(=O)(=O)C1 (stereo not drawn) [Pin1i−2, sulfopin]
desmoplastic (fibrotic) and immunosuppressive TME (PDAC tumors in GDA mice; GDA mice): potently reduce the fibrotic TME
CAF activation (IF for αSMA or PDGFRα) (PDAC tumors in GDA mice; GDA mice, 4 weeks): significantly reduced
collagen deposition (Sirius Red staining) (PDAC tumors in GDA mice; GDA mice, 4 weeks): significantly reduced
Median survival (PDAC tumors in GDA mice; [3]): 56 days
Median survival (PDAC tumors in GDA mice; GDA mice, FIG. 9I, treated up to 150 days, GEM 10 mg/kg weekly, αPD1, n=8, vehicle 36.5 days): 54 days
tumor growth (PDAC tumors in GDA mice; overt tumor-bearing GDA mice): significantly reduced tumor growth
apoptosis in WT organoids (human PDAC organoids; Pin1i−2 at 5 μM 3 days, then GEM at 25 nM for 24 hrs): induced apoptosis in WT organoids
GEM-mediated organoid apoptosis (human PDAC organoids; pre-treated with Pin1i−1 at 10 μM or Pin1i−2 at 5 μM for 72 hrs, then GEM at 25 nM for 24 hrs): greatly potentiated GEM-mediated organoid apoptosis
Body weight ([1]; 20 mg/kg i.p. daily, 3 weeks): 105.5371%
Body weight ([1]; 20 mg/kg i.p. daily, 5 weeks): 107.5%
Body weight ([1]; 40 mg/kg i.p. daily, 3 weeks): 107.9%
Body weight ([1]; 40 mg/kg i.p. daily, 5 weeks): 106.7%
Body weight ([1]; 60 mg/kg i.p. daily, 3 weeks): 104.8%
Body weight ([1]; 60 mg/kg i.p. daily, 5 weeks): 107.3%
cell growth (proliferation assay) ([2]; PDAC cells): dose-dependently suppress cell growth
Pin1 KO cell growth ([2]; Pin1-KO PDAC2 cells): fails to suppress Pin1 KO cell growth
